Drawing on US11708366B2, “Heteroaryl substituted spiropiperidinyl derivatives and pharmaceutical uses thereof” (Novartis AG, priority 2020, dated 2023), this text covers IC50 for 22 molecules.

For orientation: IC50 means the concentration that gives 50% inhibition.

The target in experiment [1] is T1, LTC4S (Homo sapiens (Human), UniProt Q16873). Briefly: Human LTC4S enzymatic assay (HTRF detection of LTC4-Me). It is filed as biochemical. Here is the method: A. Human LTC4S Enzymatic Assay:
LTC4 synthase catalyzes the conversion of Leukotriene A4 (LTA4) to Leukotriene C4 (LTC4) in the presence of reduced glutathione (GSH) as a co-substrate. For compound testing, compounds are delivered as 10 mM stock solutions in 90% DMSO in matrix tubes. From this, a 1:3 dilution dose response series is prepared with a starting concentration of 30 μM to 0.1 nM. For the enzymatic assay 97.5 nL of compound/DMSO solution is transferred to each well and 5 μL enzyme solution (assay buffer: 50 mM bis-tris propane pH 7.3, 250 mM NaCl, 10 mM MgCl2, 0.001% MGN3) is added to the wells. […] The enzyme compound mixture is incubated at room temperature for 15 minutes prior to the addition of 5 μL substrate solution. […] A final substrate concentration of 400 μM GSH and 5 μM LTA4-Me is chosen.
The LTA4-Me is obtained commercially in 2% triethylamine/hexane solvent. As this solvent is incompatible with the HTRF assay it has to be exchanged with DMSO according to following procedure: add 50 μL of 100% DMSO to 50 μL LTA4-Me (3 mM) in a 2 mL Eppendorf tube and mix gently by inverting the tube. The triethylamine/hexane is evaporated under a constant argon flux at room temperature. The DMSO-LTA4-Me (3 mM) is aliquoted and stored at −20° C. for not longer than 4 weeks, as it is not stable in DMSO due to its oxidizing properties.
Upon addition of the substrate, the plate is immediately placed on a shaker for 5 min at room temperature. Immediately after the 5 min incubation 5 μL of H2O2 solution is added to all wells to stop the reaction. The plate contents are mixed before the addition of detection reagents. […] For the detection of the product of the enzymatic reaction LTC4-Me, the Cisbio LTC4-HTRF kit is used as the assay is compatible with the detection of LTC4-Me. 5 μL of diluted LTC4-d2 conjugate (according to manufacturer's protocol) are added to all wells of the assay plate and the contents gently mixed and incubated for 5 minutes at room temperature. […] The percent inhibition for each point of an inhibition curve is calculated after data interpolation using the LTC4-Me standard curve, to convert the HTRF signal to the amount of LTC4-Me produced within the LTC4S catalyzed reaction on each plate. The data is analyzed using parametric curve fitting to determine IC50 values of LTC4S inhibitors.
A general note: Time-resolved FRET reads energy transfer from a long-lived donor to a nearby acceptor.

The target of experiment [2] is T1, LTC4S. Nature of the experiment: Human whole blood HTRF assay (LTC4 release after calcium ionophore A23187). Type of experiment: cell-based. Particulars: calcium ionophore A23187 stimulation, LTC4 by HTRF.
Setting [3] is: 0.75 nM enzyme, 400 μM GSH, 5 μM LTA4-Me, 15 min pre-incubation, read-out: human LTC4S IC50 (enzymatic assay).
Setting [4] is: human whole blood diluted 1:3, 4 h incubation, read-out: human whole blood HTRF IC50.

Consider “1-(4-chloro-3-fluorophenyl)-9-(5-((1R,2R)-2-(trifluoromethyl)cyclopropyl)-1,2,4-oxadiazol-3-yl)-1,9-diazaspiro[5.5]undecan-2-one, or 1-(4-chloro-3-fluorophenyl)-9-(5-((1S,2S)-2-(trifluoromethyl)cyclopropyl)-1,2,4-oxadiazol-3-yl)-1,9-diazaspiro[5.5]undecan-2-one [Example 6a]”, for which the values for the IC50 on LTC4S [1] (setting [3]) and on LTC4S [2] (setting [4]) were 190 nM and 310 nM, respectively. As to `O=C1CCCC2(CCN(c3ncn(-c4ccc(F)cc4)n3)CC2)N1c1ccc(Cl)c(F)c1` [Example 1, 1-(4-chloro-3-fluorophenyl)-9-(1-(4-fluorophenyl)-1H-1,2,4-triazol-3-yl)-1,9-diazaspiro[5.5]undecan-2-one], the IC50 on LTC4S [1] (setting [3]) was 6 nM; on LTC4S [2] (setting [4]) it was 13 nM.

Consider `O=C1CCCC2(CCN(c3nc4ccc(C(F)(F)F)cc4o3)CC2)N1c1ccc(Cl)c(F)c1` [Example 2, 1-(4-chloro-3-fluorophenyl)-9-(6-(trifluoromethyl)benzo[d]oxazol-2-yl)-1,9-diazaspiro[5.5]undecan-2-one], for which, at LTC4S [1] (setting [3]), the IC50 amounted to 36 nM. Turning to `O=C1CCCC2(CCN(c3nccc(C(F)(F)F)n3)CC2)N1c1ccc(Cl)c(F)c1` [Example 3, 1-(4-chloro-3-fluorophenyl)-9-(4-(trifluoromethyl)pyrimidin-2-yl)-1,9-diazaspiro[5.5]undecan-2-one], the IC50 on LTC4S [1] (setting [3]) stood at 8 nM; on LTC4S [2] (setting [4]) it was 180 nM. Regarding `O=C1CCCC2(CCN(c3ncc4ccc(C(F)(F)F)cc4n3)CC2)N1c1ccc(Cl)c(F)c1` [Example 4, 1-(4-chloro-3-fluorophenyl)-9-(7-(trifluoromethyl)quinazolin-2-yl)-1,9-diazaspiro[5.5]undecan-2-one], the IC50 on LTC4S [1] (setting [3]) worked out at 7 nM; on LTC4S [2] (setting [4]), 50 nM. The corresponding values for `O=C1CCCC2(CCN(c3ccn4nc(C(F)(F)F)cc4n3)CC2)N1c1ccc(Cl)c(F)c1` [Example 5, 1-(4-chloro-3-fluorophenyl)-9-(2-(trifluoromethyl)pyrazolo[1,5-a]pyrimidin-5-yl)-1,9-diazaspiro[5.5]undecan-2-one] are 5 nM and 10 nM. For the molecule `O=C1CCCC2(CCN(c3noc([C@H]4C[C@@H]4C(F)(F)F)n3)CC2)N1c1ccc(Cl)c(F)c1` [Example 6b, 1-(4-chloro-3-fluorophenyl)-9-(5-((1S,2S)-2-(trifluoromethyl)cyclopropyl)-1,2,4-oxadiazol-3-yl)-1,9-diazaspiro[5.5]undecan-2-one, or 1-(4-chloro-3-fluorophenyl)-9-(5-((1R,2R)-2-(trifluoromethyl)cyclopropyl)-1,2,4-oxadiazol-3-yl)-1,9-diazaspiro[5.5]undecan-2-one], the IC50 at LTC4S [1] (setting [3]) is 44 nM. Regarding `O=C1CCCC2(CCN(c3noc(C45CC(C(F)(F)F)(C4)C5)n3)CC2)N1c1ccc(Cl)c(F)c1` [Example 7, 1-(4-chloro-3-fluorophenyl)-9-(5-(3-(trifluoromethyl)bicyclo[1.1.1]pentan-1-yl)-1,2,4-oxadiazol-3-yl)-1,9-diazaspiro[5.5]undecan-2-one], the IC50 at LTC4S [1] (setting [3]) worked out at 76 nM; at LTC4S [2] (setting [4]) it was 100 nM. On to `O=C1CCCC2(CCN(c3nc(N4CCCC4)nnc3O)CC2)N1c1ccc(Cl)c(F)c1` [Example 8, 1-(4-chloro-3-fluorophenyl)-9-(6-hydroxy-3-(pyrrolidin-1-yl)-1,2,4-triazin-5-yl)-1,9-diazaspiro[5.5]undecan-2-one], for which the IC50 at LTC4S [1] (setting [3]) is 7 nM. As for `Cn1cc(-c2ccc(F)cc2)nc(N2CCC3(CCCC(=O)N3c3ccc(Cl)c(F)c3)CC2)c1=O` [Example 9, 1-(4-chloro-3-fluorophenyl)-9-(6-(4-fluorophenyl)-4-methyl-3-oxo-3,4-dihydropyrazin-2-yl)-1,9-diazaspiro[5.5]undecan-2-one], the IC50 on LTC4S [1] (setting [3]) worked out at 2 nM; at LTC4S [2] (setting [4]), 48 nM.

In the case of `O=C1CCCC2(CCN(c3nncc(C4CCCC4)n3)CC2)N1c1ccc(Cl)c(F)c1` [Example 20, 1-(4-chloro-3-fluorophenyl)-9-(5-cyclopentyl-1,2,4-triazin-3-yl)-1,9-diazaspiro[5.5]undecan-2-one], the results for the IC50 at LTC4S [1] (setting [3]) and on LTC4S [2] (setting [4]) were 12 nM and 64 nM, respectively. On to `O=C1CCCC2(CCN(c3ncc(-c4ccc(F)cc4)o3)CC2)N1c1ccc(Cl)c(F)c1` [Example 21, 1-(4-chloro-3-fluorophenyl)-9-(5-(4-fluorophenyl)oxazol-2-yl)-1,9-diazaspiro[5.5]undecan-2-one], for which the IC50 turned out to be 4 nM at LTC4S [1] (setting [3]) and 7 nM at LTC4S [2] (setting [4]). Take `O=C1CCCC2(CCN(c3nnn(-c4ccccc4)n3)CC2)N1c1ccc(Cl)c(F)c1` [Example 22, 1-(4-chloro-3-fluorophenyl)-9-(2-phenyl-2H-tetrazol-5-yl)-1,9-diazaspiro[5.5]undecan-2-one]: the IC50 on LTC4S [1] (setting [3]) worked out at 11 nM; on LTC4S [2] (setting [4]), 530 nM. On the same counts, the results for `O=C1CCCC2(CCN(c3nsc(N4CCC(F)(F)C4)n3)CC2)N1c1ccc(Cl)c(F)c1` [Example 23, 1-(4-chloro-3-fluorophenyl)-9-(5-(3,3-difluoropyrrolidin-1-yl)-1,2,4-thiadiazol-3-yl)-1,9-diazaspiro[5.5]undecan-2-one] are 61 nM and 45 nM. In the case of `O=C1CCCC2(CCN(c3nsc(N4CC(C(F)(F)F)C4)n3)CC2)N1c1ccc(Cl)c(F)c1` [Example 24, 1-(4-chloro-3-fluorophenyl)-9-(5-(3-(trifluoromethyl)azetidin-1-yl)-1,2,4-thiadiazol-3-yl)-1,9-diazaspiro[5.5]undecan-2-one], the half-inhibitory concentration (IC50) stood at 33 nM at LTC4S [1] (setting [3]) and 110 nM at LTC4S [2] (setting [4]).

Molecule `O=C1CCCC2(CCN(c3nccc(N4CC5(CC5)C4)n3)CC2)N1c1ccc(Cl)c(F)c1` [Example 35b, 9-(4-(5-azaspiro[2.3]hexan-5-yl)pyrimidin-2-yl)-1-(4-chloro-3-fluorophenyl)-1,9-diazaspiro[5.5]undecan-2-one] yielded an IC50 against LTC4S [1] of 3 nM. Regarding `O=C1CCCC2(CCN(c3cc(N4CC(F)(F)C(F)(F)C4)ncn3)CC2)N1c1ccc(Cl)c(F)c1` [Example 44, 1-(4-chloro-3-fluorophenyl)-9-(6-(3,3,4,4-tetrafluoropyrrolidin-1-yl)pyrimidin-4-yl)-1,9-diazaspiro[5.5]undecan-2-one], the IC50 at LTC4S [1] (setting [3]) turned out to be 13 nM.

As for `O=C1CC(F)CC2(CCN(c3cc(OCC(F)(F)F)ncn3)CC2)N1c1ccc(F)c(F)c1` (stereo not shown) [Example 119, 1-(3,4-difluorophenyl)-4-fluoro-9-(6-(2,2,2-trifluoroethoxy)pyrimidin-4-yl)-1,9-diazaspiro[5.5]undecan-2-one], the IC50 on LTC4S [2] (human whole blood HTRF IC50, human whole blood diluted 1:3, 4 h incubation) was found to be 29 nM. Regarding `CC(F)(F)c1cc(N2CCC3(CCCC(=O)N3c3ccc(F)c(F)c3)CC2)nc(N)n1` [Example 120, 9-(2-amino-6-(1,1-difluoroethyl)pyrimidin-4-yl)-1-(3,4-difluorophenyl)-1,9-diazaspiro[5.5]undecan-2-one], on LTC4S [2] (setting [4]), the IC50 was found to be 32 nM. Regarding “(R)-9-(2-amino-6-((1,1,1-trifluoropropan-2-yl)oxy)pyrimidin-4-yl)-1-(3,4-difluorophenyl)-3-oxa-1,9-diazaspiro[5.5]undecan-2-one, or (S)-9-(2-amino-6-((1,1,1-trifluoropropan-2-yl)oxy)pyrimidin-4-yl)-1-(3,4-difluorophenyl)-3-oxa-1,9-diazaspiro[5.5]undecan-2-one [Example 113a]”, the IC50 on LTC4S [2] (setting [4]) was 15 nM. As to “(S)-1-(3,4-difluorophenyl)-9-(2-(hydroxymethyl)-6-((1,1,1-trifluoropropan-2-yl)oxy)pyrimidin-4-yl)-1,9-diazaspiro[5.5]undecan-2-one or (R)-1-(3,4-difluorophenyl)-9-(2-(hydroxymethyl)-6-((1,1,1-trifluoropropan-2-yl)oxy)pyrimidin-4-yl)-1,9-diazaspiro[5.5]undecan-2-one [Example 110a]”, the IC50 on LTC4S [2] (setting [4]) turned out to be 3 nM. Same read-out and setting: with “(S)-9-(2-amino-6-(2,2,2-trifluoro-1-(oxetan-3-yl)ethoxy)pyrimidin-4-yl)-1-(3,4-difluorophenyl)-1,9-diazaspiro[5.5]undecan-2-one or (R)-9-(2-amino-6-(2,2,2-trifluoro-1-(oxetan-3-yl)ethoxy)pyrimidin-4-yl)-1-(3,4-difluorophenyl)-1,9-diazaspiro[5.5]undecan-2-one [Example 89a]” the figure was 1 nM.
